# Experimental data taken from ChEMBL document CHEMBL1154318, “Bicyclic alpha,omega-dicarboxylic acid derivatives from a colonial tunicate of the family Polyclinidae” (2009).
# Calls of active or inactive are those of the source. The rule behind the calls is not given here.
# Assays:
# [1] = system: A549; experiment: Cytotoxicity against human A549 cells after 48 hrs by sulforhodamine B assay; type: functional; conditions: A549, 48 h, read-out: ED50 (the source's name)
# [2] = system: SK-OV-3; experiment: Cytotoxicity against human SKOV3 cells after 48 hrs by sulforhodamine B assay; type: functional; conditions: SK-OV-3, 48 h, read-out: ED50 (the source's name)
# [3] = system: SK-MEL-2; experiment: Cytotoxicity against human SK-MEL-2 cells after 48 hrs by sulforhodamine B assay; type: functional; conditions: SK-MEL-2, 48 h, read-out: ED50 (the source's name)
# [4] = system: XF498; experiment: Cytotoxicity against human XF498 cells after 48 hrs by sulforhodamine B assay; type: functional; conditions: XF498, 48 h, read-out: ED50 (the source's name)
# [5] = system: HCT-15; experiment: Cytotoxicity against human HCT15 cells after 48 hrs by sulforhodamine B assay; type: functional; conditions: HCT-15, 48 h, read-out: ED50 (the source's name)
# [6] = system: Streptococcus pyogenes; experiment: Antibacterial activity against […] resistant Streptococcus pyogenes 308A at 100 ug/ml after 18 hrs by serial dilution; type: functional, organism-based
# [7] = system: Streptococcus pyogenes; experiment: Antibacterial activity against […] resistant Streptococcus pyogenes 77A at 100 ug/ml after 18 hrs by serial dilution; type: functional, organism-based
# [8] = system: Enterococcus faecium; experiment: Antibacterial activity against […] resistant Streptococcus faecium MD 8b at 100 ug/ml after 18 hrs by serial dilution; type: functional, organism-based
# [9] = system: Staphylococcus aureus; experiment: Antibacterial activity against […] resistant Staphylococcus aureus SG 511 at 100 ug/ml after 18 hrs by serial dilution; type: functional, organism-based
# [10] = system: Staphylococcus aureus; experiment: Antibacterial activity against methicillin resistant Staphylococcus aureus 285 at 100 ug/ml after 18 hrs by serial dilution; type: functional, organism-based
# [11] = system: Staphylococcus aureus; experiment: Antibacterial activity against methicillin resistant Staphylococcus aureus 503 at 100 ug/ml after 18 hrs by serial dilution; type: functional, organism-based
# [12] = system: Escherichia coli; experiment: Antibacterial activity against […] resistant Escherichia coli 078 at 100 ug/ml after 18 hrs by serial dilution; type: functional, organism-based
# [13] = system: Escherichia coli; experiment: Antibacterial activity against […] resistant Escherichia coli DC 0 at 100 ug/ml after 18 hrs by serial dilution; type: functional, organism-based
# [14] = system: Escherichia coli; experiment: Antibacterial activity against […] resistant Escherichia coli DC 2 at 100 ug/ml after 18 hrs by serial dilution; type: functional, organism-based
# [15] = system: Escherichia coli; experiment: Antibacterial activity against […] resistant Escherichia coli TEM at 100 ug/ml after 18 hrs by serial dilution; type: functional, organism-based
# [16] = system: Escherichia coli; experiment: Antibacterial activity against […] resistant Escherichia coli 1507E at 100 ug/ml after 18 hrs by serial dilution; type: functional, organism-based
# [17] = system: Pseudomonas aeruginosa; experiment: Antibacterial activity against […] resistant Pseudomonas aeruginosa 9027 at 100 ug/ml after 18 hrs by serial dilution; type: functional, organism-based
# [18] = system: Pseudomonas aeruginosa; experiment: Antibacterial activity against […] resistant Pseudomonas aeruginosa 1592E at 100 ug/ml after 18 hrs by serial dilution; type: functional, organism-based
# [19] = system: Pseudomonas aeruginosa; experiment: Antibacterial activity against […] resistant Pseudomonas aeruginosa 1771 at 100 ug/ml after 18 hrs by serial dilution; type: functional, organism-based
# [20] = system: Pseudomonas aeruginosa; experiment: Antibacterial activity against […] resistant Pseudomonas aeruginosa 1771M at 100 ug/ml after 18 hrs by serial dilution; type: functional, organism-based
# [21] = system: Salmonella enterica; experiment: Antibacterial activity against […] resistant Salmonella Typhimurium at 100 ug/ml after 18 hrs by serial dilution; type: functional, organism-based; conditions: Salmonella enterica subsp. enterica serovar Typhimurium
# [22] = system: Klebsiella oxytoca; experiment: Antibacterial activity against […] resistant Klebsiella oxytoca 1082E at 100 ug/ml after 18 hrs by serial dilution; type: functional, organism-based
# [23] = system: Klebsiella aerogenes; experiment: Antibacterial activity against […] resistant Klebsiella aerogenes 1522E at 100 ug/ml after 18 hrs by serial dilution; type: functional, organism-based
# [24] = system: Enterobacter cloacae; experiment: Antibacterial activity against […] resistant Enterobacter cloacae P 99 at 100 ug/ml after 18 hrs by serial dilution; type: functional, organism-based
# [25] = system: Enterobacter cloacae; experiment: Antibacterial activity against […] resistant Enterobacter cloacae 1321E at 100 ug/ml after 18 hrs by serial dilution; type: functional, organism-based
# [26] = system: RAW264.7; experiment: Antiinflammatory activity in mouse RAW264.7 cells assessed as inhibition of NO production at 100 ug/ml; type: functional, cell-based
# [27] = system: RAW264.7; experiment: Antiinflammatory activity in mouse RAW264.7 cells assessed as inhibition of IL-6 production at 100 ug/ml; type: functional, cell-based
# [28] = system: RAW264.7; experiment: Antiinflammatory activity in mouse RAW264.7 cells assessed as inhibition of TNFalpha production at 100 ug/ml; type: functional, cell-based
smiles,measurement,setting,value
COc1cccc2c1C(=O)c1c(O)c3c(c(O)c1C2=O)C[C@@](O)(C(=O)CO)C[C@@H]3O[C@H]1C[C@H](N)[C@H](O)[C@H](C)O1 [DOXORUBICIN],EC50,[1],0.001 µg/mL
same,EC50,[2],0.003 µg/mL
same,EC50,[3],0.001 µg/mL
same,EC50,[4],0.029 µg/mL
same,EC50,[5],0.071 µg/mL
COC(=O)/C=C/C=C/[C@@H]1[C@@H]2CCC[C@H]2C=C[C@H]1/C=C/C=C/CCCC(=O)O [APLIDIC ACID A],EC50,[1],25.2 µg/mL
same,EC50,[2],15.2 µg/mL
same,EC50,[3],11.6 µg/mL
same,EC50,[4],19.5 µg/mL
same,EC50,[5],12.4 µg/mL
same,Activity,[6],inactive
same,Activity,[7],inactive
same,Activity,[8],inactive
same,Activity,[9],inactive
same,Activity,[10],inactive
same,Activity,[11],inactive
same,Activity,[12],inactive
same,Activity,[13],inactive
same,Activity,[14],inactive
same,Activity,[15],inactive
same,Activity,[16],inactive
same,Activity,[17],inactive
same,Activity,[18],inactive
same,Activity,[19],inactive
same,Activity,[20],inactive
same,Activity,[21],inactive
same,Activity,[22],inactive
same,Activity,[23],inactive
same,Activity,[24],inactive
same,Activity,[25],inactive
same,Activity,[26],inactive
same,Activity,[27],inactive
same,Activity,[28],inactive
COC(=O)/C=C/C=C/[C@@H]1[C@@H]2CCC[C@H]2C=C[C@H]1/C=C/C=C/CCCC(=O)NCCC(=O)NCCc1c[nH]c2ccccc12 [APLIDIC ACID AMIDE A],EC50,[1],17.5 µg/mL
same,EC50,[2],17.2 µg/mL
same,EC50,[3],11.7 µg/mL
same,EC50,[4],15.6 µg/mL
same,EC50,[5],13.5 µg/mL
O=C(O)CCC/C=C/[C@@H]1C=C[C@@H]2CCC[C@H]2[C@H]1/C=C/C=C/C(=O)NCCc1ccccc1 [APLIDIC ACID C],EC50,[1],12.3 µg/mL
same,EC50,[2],14.7 µg/mL
same,EC50,[3],14.5 µg/mL
same,EC50,[4],14 µg/mL
same,EC50,[5],12 µg/mL
O=C(O)CCC/C=C/C=C/[C@@H]1C=C[C@@H]2CCC[C@H]2[C@H]1/C=C/C=C/C(=O)NCCc1ccccc1 [APLIDIC ACID B],EC50,[1],28.4 µg/mL
same,EC50,[2],13.5 µg/mL
same,EC50,[3],11.4 µg/mL
same,EC50,[4],21.6 µg/mL
same,EC50,[5],13.5 µg/mL
